Test results taken from PubChem BioAssay (NCI).
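96-well plates; 48 h exposure; 5 concentrations. Endpoints by linear interpolation between flanking doses. Not reached: highest tested concentration assigned. The concentration for full growth arrest is given as TGI.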

How the values were obtained:
Assay in all cases: growth of human tumour cells (NCI), 48 h
[1] = tested on: IGROV1 ovarian
[2] = tested on: SW-620 colon
[3] = tested on: OVCAR-5 ovarian
[4] = tested on: HS 578T breast
[5] = tested on: KM12 colon
[6] = tested on: COLO 205 colon
[7] = tested on: A498 renal
[8] = tested on: HT29 colon
[9] = tested on: SN12C renal
[10] = tested on: HCC-2998 colon
[11] = tested on: CAKI-1 renal
[12] = tested on: NCI-H522 lung
[13] = tested on: SK-MEL-5 melanoma
[14] = tested on: NCI-H226 lung
[15] = tested on: UO-31 renal
[16] = tested on: EKVX NSCLC
[17] = tested on: BT-549 breast
[18] = tested on: OVCAR-8 ovarian
[19] = tested on: SF-539 CNS
[20] = tested on: M14 melanoma

SMILES | TGI [1] [µM] | TGI [2] [µM] | TGI [3] [µM] | TGI [4] [µM] | TGI [5] [µM] | TGI [6] [µM] | TGI [7] [µM] | TGI [8] [µM] | TGI [9] [µM] | TGI [10] [µM] | TGI [11] [µM] | TGI [12] [µM] | TGI [13] [µM] | TGI [14] [µM] | TGI [15] [µM] | TGI [16] [µM] | TGI [17] [µM] | TGI [18] [µM] | TGI [19] [µM] | TGI [20] [µM]
COc1ccc2c(C)cc(N/N=C/c3ccc(C)s3)nc2c1 | 37.9 | > 48.4 | 30.2 | > 90.9 | > 57 | 9.24 | 52.9 | 16.7 | 37.3 | 19.6 | 34.4 | > 100 | 16 | 51.7 | 35.4 | 32.2 | 62.8 | 51.5 | 36.5 | 23.2
COc1ccc(C[C@@H](C(=O)O[C@H](C)[C@H](NC(=O)[C@@H](CC(C)C)N(C)C(=O)C2CCCN2C(=O)[C@H](C)O)C(=O)N2CCCCNC(=O)[C@@H](C)C(=O)[C@H](C(C)C)OC(=O)C[C@H](O)[C@H]2CC(C)C)N(C)C(C)=O)cc1 (stereo partly drawn) | > 50 | 28.4 | > 50 | 34.8 | 31.6 | 14.8 | 43.6 | 25.4 | > 50 | 23 | 41.6 | > 50 | 34.1 | 49.5 | > 50 | 37.1 | > 50 | > 50 | 17.1 | > 50
O=[N+]([O-])C(C(Cl)=C(Cl)Cl)=C(n1nnc2ccccc21)n1nnc2ccccc21 | 60.4 | 16.6 | > 66.3 | 85.6 | > 70.1 | 51.9 | > 90 | 59.6 | 56.7 | > 67.1 | > 54.1 | 38.6 | > 67.8 | > 73.9 | 52.6 | > 74.6 | 99.6 | 48.8 | 53.3 | 50.8
CSc1ncc2c(C#N)c3[nH]c4ccccc4n3c(=O)c2n1 | > 100 | > 100 | > 100 | > 100 | > 100 | 35.1 | 52.7 | – | > 100 | 42.7 | 78.4 | > 100 | 25.2 | > 100 | > 100 | > 100 | > 100 | 98.8 | > 100 | > 100
CC(=O)N1C(CCc2ccccc2)CC(C)(C=O)C1Cc1ccc(O[Si](C(C)C)(C(C)C)C(C)C)cc1 (stereo not drawn) | 19.1 | 14.4 | 28.8 | 8.96 | 11.8 | 7.03 | 14.3 | 9.99 | 9.06 | 4.62 | 11.2 | 5.95 | 7.64 | 19.9 | 14.3 | 15.8 | 29.7 | 18.6 | 6.03 | 4.49
COC(=O)[C@@H](NC(=O)[C@H](N)Cc1ccc(N(CCCl)CCCl)cc1)C(C)C | 45.1 | > 77.3 | > 100 | 77.7 | 66.4 | > 64.4 | 48.5 | > 100 | > 79.7 | 26.5 | 7.53 | 33.1 | 10.8 | 59.2 | 33 | > 90.8 | 65.3 | 27.8 | 67.6 | 49.5
Clc1ccc(C(Cc2ccccc2)c2c(Cl)nc(N3CCNCC3)nc2Cl)cc1 (stereo not drawn) | 24.2 | 27.7 | 32 | 32.6 | 20.7 | 3.11 | 24.8 | 6.27 | 28.8 | 26 | 18 | 25.9 | 27.8 | 40.7 | 27.2 | 32.2 | 47.4 | 27.3 | 28.8 | 29.7
c1ccc(C2=NN=C3C(c4ccccc4)=Nc4ccccc4N3C2)cc1 | > 100 | > 100 | > 94.3 | 67.5 | > 100 | 52.8 | > 100 | > 69.6 | > 100 | > 100 | > 100 | 22.8 | 40.7 | > 70.2 | > 59.4 | > 68.6 | > 100 | > 100 | > 100 | 50.4
O=C1C=C(NCC(c2ccccc2)c2ccccc2)C(=O)c2ncccc21 | 8.82 | – | 10.1 | 12.3 | 16.5 | 24.4 | 9.69 | 25.8 | 5.16 | 2.12 | 11.4 | 3.57 | 1.62 | 9.71 | 12.2 | 7.83 | 5.09 | 11.5 | 8.55 | 3.25
